Assay results taken from patent US20090299044A1 (priority 2006, published 2009).
Bridge positions count the residues as written; N and C are the ends. Square brackets hold non-standard residues; d marks the D form. Peptide text beside a SMILES is read from it. 1Nal = N[C@@H](Cc1cccc2ccccc12)C(=O)O

How the values were obtained:
human Kv1.3 (CHO) = biological target: T1, human Kv1.3 (CHO) (Homo sapiens, UniProt P22001); experiment: cell-based
T1 construct: expressed in transfected cells; host or cells: CHO
T1 sequence (P22001 whole entry): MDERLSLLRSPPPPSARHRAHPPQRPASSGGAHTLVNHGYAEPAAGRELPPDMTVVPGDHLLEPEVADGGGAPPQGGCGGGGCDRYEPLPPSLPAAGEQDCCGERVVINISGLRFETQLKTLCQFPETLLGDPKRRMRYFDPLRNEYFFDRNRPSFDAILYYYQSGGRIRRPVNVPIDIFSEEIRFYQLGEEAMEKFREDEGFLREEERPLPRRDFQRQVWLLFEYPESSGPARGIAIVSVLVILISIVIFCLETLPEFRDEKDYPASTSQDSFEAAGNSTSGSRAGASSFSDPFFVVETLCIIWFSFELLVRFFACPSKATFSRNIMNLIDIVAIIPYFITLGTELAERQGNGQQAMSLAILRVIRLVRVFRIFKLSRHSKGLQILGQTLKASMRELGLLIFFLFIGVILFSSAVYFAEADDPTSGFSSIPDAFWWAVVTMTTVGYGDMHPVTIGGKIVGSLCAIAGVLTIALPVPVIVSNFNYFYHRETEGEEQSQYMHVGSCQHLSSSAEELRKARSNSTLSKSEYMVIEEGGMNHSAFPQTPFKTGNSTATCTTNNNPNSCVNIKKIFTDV

human Kv1.1 (HEK293) = biological target: T2, human Kv1.1 (HEK293) (Homo sapiens, UniProt Q09470); experiment: cell-based
T2 construct: expressed in transfected cells; host or cells: HEK293
T2 sequence (Q09470 whole entry): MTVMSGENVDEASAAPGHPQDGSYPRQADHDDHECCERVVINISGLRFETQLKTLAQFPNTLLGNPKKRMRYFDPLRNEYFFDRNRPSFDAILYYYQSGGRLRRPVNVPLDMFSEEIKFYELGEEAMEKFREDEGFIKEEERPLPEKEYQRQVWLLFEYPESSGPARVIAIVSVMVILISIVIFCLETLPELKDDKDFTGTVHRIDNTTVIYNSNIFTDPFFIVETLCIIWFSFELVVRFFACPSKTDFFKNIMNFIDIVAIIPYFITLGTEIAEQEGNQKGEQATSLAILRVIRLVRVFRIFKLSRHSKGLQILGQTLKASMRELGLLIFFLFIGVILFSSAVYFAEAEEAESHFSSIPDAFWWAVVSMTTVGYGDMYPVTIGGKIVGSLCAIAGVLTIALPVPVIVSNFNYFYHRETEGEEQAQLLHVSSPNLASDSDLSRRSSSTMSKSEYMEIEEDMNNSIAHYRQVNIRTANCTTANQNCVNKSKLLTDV

Structure (SMILES): CC[C@H](C)[C@@H]1NC(=O)[C@H](CCCCN)NC(=O)[C@@H](NC(=O)[C@H](CCCCN)NC(=O)[C@@H](NC(=O)[C@H](CC(N)=O)NC(=O)[C@@H](NC(=O)[C@@H](NC(=O)[C@@H](NC(=O)CN)C(C)C)[C@@H](C)CC)[C@@H](C)CC)C(C)C)CSSC[C@@H]2NC(=O)[C@H](CCCCN)NC(=O)CNC(=O)[C@H](Cc3ccccc3)NC(=O)[C@H](CCCNC(=N)N)NC(=O)[C@H](CCSC)NC(=O)CNC(=O)[C@H](C)NC(=O)[C@H](CCCCN)NC(=O)[C@H](CCCCN)NC(=O)[C@@H]3CSSC[C@@H](C(=O)N[C@H](C(=O)N4CCC[C@H]4C(=O)N[C@@H](CCCCN)C(=O)O)[C@@H](C)O)NC(=O)[C@H](Cc4c[nH]cn4)NC(=O)[C@H](CSSC[C@H](NC(=O)[C@H](CCC(N)=O)NC(=O)[C@H](CCCNC(=N)N)NC(=O)[C@H](CO)NC1=O)C(=O)N[C@@H](CC(C)C)C(=O)N[C@@H](CCC(=O)O)C(=O)N[C@@H](CCCNC(=N)N)C(=O)N3)NC(=O)[C@H](CCCCN)NC(=O)CNC(=O)[C@H](CC(N)=O)NC(=O)[C@H](CCSC)NC2=O [P17R] (H-GVIINVKCKISRQCLERCKKAGMRFGKCMNGKCHCTPK-OH; disulfide 8-28, 14-33, 18-35)
- IC50 (human Kv1.3 (CHO)): 0.0104 nM
- IC50 (human Kv1.1 (HEK293)): < 0.00152 nM

Structure (SMILES): CC[C@H](C)[C@@H]1NC(=O)[C@H](CCCCN)NC(=O)[C@@H](NC(=O)[C@H](CCCCN)NC(=O)[C@@H](NC(=O)[C@H](CC(N)=O)NC(=O)[C@@H](NC(=O)[C@@H](NC(=O)[C@@H](NC(=O)CN)C(C)C)[C@@H](C)CC)[C@@H](C)CC)C(C)C)CSSC[C@@H]2NC(=O)[C@H](CCCCN)NC(=O)CNC(=O)[C@H](Cc3ccccc3)NC(=O)[C@H](CCCNC(=N)N)NC(=O)[C@H](CCSC)NC(=O)CNC(=O)[C@H](C)NC(=O)[C@H](CCCCN)NC(=O)[C@H](CCCCN)NC(=O)[C@@H]3CSSC[C@@H](C(=O)N[C@H](C(=O)N[C@@H](Cc4cccc5ccccc45)C(=O)N[C@@H](CCCCN)C(=O)O)[C@@H](C)O)NC(=O)[C@H](Cc4c[nH]cn4)NC(=O)[C@H](CSSC[C@H](NC(=O)[C@H](CCC(N)=O)NC(=O)[C@H](CCCNC(=N)N)NC(=O)[C@H](CO)NC1=O)C(=O)N[C@@H](CC(C)C)C(=O)N[C@@H](CCC(=O)O)C(=O)N1CCC[C@H]1C(=O)N3)NC(=O)[C@H](CCCCN)NC(=O)CNC(=O)[C@H](CC(N)=O)NC(=O)[C@H](CCSC)NC2=O [P37Nal] (H-GVIINVKCKISRQCLEPCKKAGMRFGKCMNGKCHCT[1Nal]K-OH; disulfide 8-28, 14-33, 18-35)
- IC50 (human Kv1.3 (CHO)): 0.0708 nM
- IC50 (human Kv1.1 (HEK293)): 0.00674 nM

Structure (SMILES): CC[C@H](C)[C@@H]1NC(=O)[C@H](CCCCN)NC(=O)[C@@H](NC(=O)[C@H](CCCCN)NC(=O)[C@@H](NC(=O)[C@H](CC(N)=O)NC(=O)[C@@H](NC(=O)[C@@H](NC(=O)[C@@H](NC(=O)CN)C(C)C)[C@@H](C)CC)[C@@H](C)CC)C(C)C)CSSC[C@@H]2NC(=O)[C@H](CCCCN)NC(=O)CNC(=O)[C@H](Cc3ccccc3)NC(=O)[C@H](CCCNC(=N)N)NC(=O)[C@H](CCSC)NC(=O)CNC(=O)[C@H](C)NC(=O)[C@H](CCCCN)NC(=O)[C@H](CCCCN)NC(=O)[C@@H]3CSSC[C@@H](C(=O)N[C@H](C(=O)N[C@@H](CCCNC(=N)N)C(=O)N[C@@H](CCCCN)C(=O)O)[C@@H](C)O)NC(=O)[C@H](Cc4c[nH]cn4)NC(=O)[C@H](CSSC[C@H](NC(=O)[C@H](CCC(N)=O)NC(=O)[C@H](CCCNC(=N)N)NC(=O)[C@H](CO)NC1=O)C(=O)N[C@@H](CC(C)C)C(=O)N[C@@H](CCC(=O)O)C(=O)N1CCC[C@H]1C(=O)N3)NC(=O)[C@H](CCCCN)NC(=O)CNC(=O)[C@H](CC(N)=O)NC(=O)[C@H](CCSC)NC2=O [P37R] (H-GVIINVKCKISRQCLEPCKKAGMRFGKCMNGKCHCTRK-OH; disulfide 8-28, 14-33, 18-35)
- IC50 (human Kv1.3 (CHO)): 0.0133 nM
- IC50 (human Kv1.1 (HEK293)): 0.00201 nM

Structure (SMILES): CC[C@H](C)[C@@H]1NC(=O)[C@H](CCCCN)NC(=O)[C@@H](NC(=O)[C@H](CCCCN)NC(=O)[C@@H](NC(=O)[C@H](CC(N)=O)NC(=O)[C@@H](NC(=O)[C@@H](NC(=O)[C@@H](NC(=O)CN)C(C)C)[C@@H](C)CC)[C@@H](C)CC)C(C)C)CSSC[C@@H]2NC(=O)[C@H](CCCCN)NC(=O)CNC(=O)[C@H](Cc3ccccc3)NC(=O)[C@H](CCCNC(=N)N)NC(=O)[C@H](CCSC)NC(=O)CNC(=O)[C@H](C)NC(=O)[C@H](CCCCN)NC(=O)[C@H](CCCCN)NC(=O)[C@@H]3CSSC[C@@H](C(=O)N[C@H](C(=O)N4CCC[C@H]4C(=O)N[C@@H](CCCCN)C(=O)O)[C@@H](C)O)NC(=O)[C@H](Cc4c[nH]cn4)NC(=O)[C@H](CSSC[C@H](NC(=O)[C@H](C)NC(=O)[C@H](CCCNC(=N)N)NC(=O)[C@H](CO)NC1=O)C(=O)N[C@@H](CC(C)C)C(=O)N[C@@H](CCC(=O)O)C(=O)N1CCC[C@H]1C(=O)N3)NC(=O)[C@H](CCCCN)NC(=O)CNC(=O)[C@H](CC(N)=O)NC(=O)[C@H](CCSC)NC2=O [Q13A] (H-GVIINVKCKISRACLEPCKKAGMRFGKCMNGKCHCTPK-OH; disulfide 8-28, 14-33, 18-35)
- IC50 (human Kv1.3 (CHO)): 0.249 nM
- IC50 (human Kv1.1 (HEK293)): 0.0217 nM

Structure (SMILES): CC[C@H](C)[C@@H]1NC(=O)[C@H](CCCCN)NC(=O)[C@@H](NC(=O)[C@H](CCCCN)NC(=O)[C@@H](NC(=O)[C@H](CC(N)=O)NC(=O)[C@@H](NC(=O)[C@@H](NC(=O)[C@@H](NC(=O)CN)C(C)C)[C@@H](C)CC)[C@@H](C)CC)C(C)C)CSSC[C@@H]2NC(=O)[C@H](CCCCN)NC(=O)CNC(=O)[C@H](Cc3ccccc3)NC(=O)[C@H](CCCNC(=N)N)NC(=O)[C@H](CCSC)NC(=O)CNC(=O)[C@H](C)NC(=O)[C@H](CCCCN)NC(=O)[C@H](CCCCN)NC(=O)[C@@H]3CSSC[C@@H](C(=O)N[C@H](C(=O)N4CCC[C@H]4C(=O)N[C@@H](CCCCN)C(=O)O)[C@@H](C)O)NC(=O)[C@H](Cc4c[nH]cn4)NC(=O)[C@H](CSSC[C@H](NC(=O)[C@H](CCC(=O)O)NC(=O)[C@H](CCCNC(=N)N)NC(=O)[C@H](CO)NC1=O)C(=O)N[C@@H](CC(C)C)C(=O)N[C@@H](CCC(=O)O)C(=O)N1CCC[C@H]1C(=O)N3)NC(=O)[C@H](CCCCN)NC(=O)CNC(=O)[C@H](CC(N)=O)NC(=O)[C@H](CCSC)NC2=O [Q13E] (H-GVIINVKCKISRECLEPCKKAGMRFGKCMNGKCHCTPK-OH; disulfide 8-28, 14-33, 18-35)
- IC50 (human Kv1.3 (CHO)): 0.0459 nM
- IC50 (human Kv1.1 (HEK293)): 0.00628 nM

Structure (SMILES): CC[C@H](C)[C@@H]1NC(=O)[C@H](CCCCN)NC(=O)[C@@H](NC(=O)[C@H](CCCCN)NC(=O)[C@@H](NC(=O)[C@H](CC(N)=O)NC(=O)[C@@H](NC(=O)[C@@H](NC(=O)[C@@H](NC(=O)CN)C(C)C)[C@@H](C)CC)[C@@H](C)CC)C(C)C)CSSC[C@@H]2NC(=O)[C@H](CCCCN)NC(=O)CNC(=O)[C@H](Cc3ccccc3)NC(=O)[C@H](CCCNC(=N)N)NC(=O)[C@H](CCSC)NC(=O)CNC(=O)[C@H](C)NC(=O)[C@H](CCCCN)NC(=O)[C@H](CCCCN)NC(=O)[C@@H]3CSSC[C@@H](C(=O)N[C@H](C(=O)N4CCC[C@H]4C(=O)N[C@@H](CCCCN)C(=O)O)[C@@H](C)O)NC(=O)[C@H](Cc4c[nH]cn4)NC(=O)[C@H](CSSC[C@H](NC(=O)[C@H](CCCNC(=N)N)NC(=O)[C@H](CCCNC(=N)N)NC(=O)[C@H](CO)NC1=O)C(=O)N[C@@H](CC(C)C)C(=O)N[C@@H](CCC(=O)O)C(=O)N1CCC[C@H]1C(=O)N3)NC(=O)[C@H](CCCCN)NC(=O)CNC(=O)[C@H](CC(N)=O)NC(=O)[C@H](CCSC)NC2=O [Q13R] (H-GVIINVKCKISRRCLEPCKKAGMRFGKCMNGKCHCTPK-OH; disulfide 8-28, 14-33, 18-35)
- IC50 (human Kv1.3 (CHO)): 0.0153 nM
- IC50 (human Kv1.1 (HEK293)): < 0.00152 nM
